Test results from the supplement of paper PMC8671470.

Tested on: HEL
Experiment: cell viability (% survival relative to DMSO control, bortezomib = 0%); higher = less cytotoxic
Settings: 1000 nM; 72 h
Method in brief: (§1)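 Fifteen myeloid leukaemia cell lines (10 AML, 5 CML) were seeded at a density titrated to the linear growth range into 384-well plates pre-printed with compounds at 1, 10, 100, 1000 or 10000 nM in duplicate. Plates were incubated for 72 h at 37 °C with 5% CO2. Viability was then read by CellTiter-Glo luminescence. Each value is percent survival averaged over the duplicates, with vehicle set to 100% and a 10 µM positive control to 0%.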

Compound | cell viability [%]
O=C(Cc1cccc(OC(F)(F)F)c1)Nc1ccc(CCCCc2nnc(NC(=O)Cc3ccccn3)s2)nn1 [CB-839] | 73.7
O=C(/C=C/c1cccnc1)NCCCCC1CCN(C(=O)c2ccccc2)CC1 [Daporinad] | 1.48
Nc1ccn([C@@H]2O[C@H](CO)[C@@H](O)C2(F)F)c(=O)n1 [Gemcitabine] | 0.472
Clc1cc(Cl)c(OCC#CI)cc1Cl [Haloprogin] | 106
O=c1[nH]c(=O)n([C@H]2C[C@H](O)[C@@H](CO)O2)cc1I [Idoxuridine] | 59.7

Same assay, conditions: 10000 nM; 72 h

Compound | cell viability [%]
O=C(Cc1cccc(OC(F)(F)F)c1)Nc1ccc(CCCCc2nnc(NC(=O)Cc3ccccn3)s2)nn1 [CB-839] | 64.8
O=C(/C=C/c1cccnc1)NCCCCC1CCN(C(=O)c2ccccc2)CC1 [Daporinad] | 1.85
Nc1ccn([C@@H]2O[C@H](CO)[C@@H](O)C2(F)F)c(=O)n1 [Gemcitabine] | 0.991
Clc1cc(Cl)c(OCC#CI)cc1Cl [Haloprogin] | 0.615
O=c1[nH]c(=O)n([C@H]2C[C@H](O)[C@@H](CO)O2)cc1I [Idoxuridine] | 36.1

Tested on: HL-60
Experiment: as above
Settings: 1 nM; 72 h
Method in brief: as §1

Compound | cell viability [%]
O=C(Cc1cccc(OC(F)(F)F)c1)Nc1ccc(CCCCc2nnc(NC(=O)Cc3ccccn3)s2)nn1 [CB-839] | 73.4
O=C(/C=C/c1cccnc1)NCCCCC1CCN(C(=O)c2ccccc2)CC1 [Daporinad] | 63.1
Nc1ccn([C@@H]2O[C@H](CO)[C@@H](O)C2(F)F)c(=O)n1 [Gemcitabine] | 104
Clc1cc(Cl)c(OCC#CI)cc1Cl [Haloprogin] | 92.2
O=c1[nH]c(=O)n([C@H]2C[C@H](O)[C@@H](CO)O2)cc1I [Idoxuridine] | 113

Same assay, conditions: 10 nM; 72 h

Compound | cell viability [%]
O=C(Cc1cccc(OC(F)(F)F)c1)Nc1ccc(CCCCc2nnc(NC(=O)Cc3ccccn3)s2)nn1 [CB-839] | 114
O=C(/C=C/c1cccnc1)NCCCCC1CCN(C(=O)c2ccccc2)CC1 [Daporinad] | 6.64
Nc1ccn([C@@H]2O[C@H](CO)[C@@H](O)C2(F)F)c(=O)n1 [Gemcitabine] | 38.9
Clc1cc(Cl)c(OCC#CI)cc1Cl [Haloprogin] | 109
O=c1[nH]c(=O)n([C@H]2C[C@H](O)[C@@H](CO)O2)cc1I [Idoxuridine] | 105

Same assay, conditions: 100 nM; 72 h

Compound | cell viability [%]
O=C(Cc1cccc(OC(F)(F)F)c1)Nc1ccc(CCCCc2nnc(NC(=O)Cc3ccccn3)s2)nn1 [CB-839] | 85.6
O=C(/C=C/c1cccnc1)NCCCCC1CCN(C(=O)c2ccccc2)CC1 [Daporinad] | -0.363
Nc1ccn([C@@H]2O[C@H](CO)[C@@H](O)C2(F)F)c(=O)n1 [Gemcitabine] | -0.42
Clc1cc(Cl)c(OCC#CI)cc1Cl [Haloprogin] | 108
O=c1[nH]c(=O)n([C@H]2C[C@H](O)[C@@H](CO)O2)cc1I [Idoxuridine] | 102

Same assay, conditions: 1000 nM; 72 h

Compound | cell viability [%]
O=C(Cc1cccc(OC(F)(F)F)c1)Nc1ccc(CCCCc2nnc(NC(=O)Cc3ccccn3)s2)nn1 [CB-839] | 40.6
O=C(/C=C/c1cccnc1)NCCCCC1CCN(C(=O)c2ccccc2)CC1 [Daporinad] | -0.298
Nc1ccn([C@@H]2O[C@H](CO)[C@@H](O)C2(F)F)c(=O)n1 [Gemcitabine] | 0.321
Clc1cc(Cl)c(OCC#CI)cc1Cl [Haloprogin] | 109
O=c1[nH]c(=O)n([C@H]2C[C@H](O)[C@@H](CO)O2)cc1I [Idoxuridine] | 95

Same assay, conditions: 10000 nM; 72 h

Compound | cell viability [%]
O=C(Cc1cccc(OC(F)(F)F)c1)Nc1ccc(CCCCc2nnc(NC(=O)Cc3ccccn3)s2)nn1 [CB-839] | 50.2
O=C(/C=C/c1cccnc1)NCCCCC1CCN(C(=O)c2ccccc2)CC1 [Daporinad] | -0.289
Nc1ccn([C@@H]2O[C@H](CO)[C@@H](O)C2(F)F)c(=O)n1 [Gemcitabine] | 0.435
Clc1cc(Cl)c(OCC#CI)cc1Cl [Haloprogin] | 51.4
O=c1[nH]c(=O)n([C@H]2C[C@H](O)[C@@H](CO)O2)cc1I [Idoxuridine] | 84

Tested on: Mono-Mac-6
Experiment: as above
Settings: 1 nM; 72 h
Method in brief: as §1

Compound | cell viability [%]
O=C(Cc1cccc(OC(F)(F)F)c1)Nc1ccc(CCCCc2nnc(NC(=O)Cc3ccccn3)s2)nn1 [CB-839] | 102
O=C(/C=C/c1cccnc1)NCCCCC1CCN(C(=O)c2ccccc2)CC1 [Daporinad] | 99.2
Nc1ccn([C@@H]2O[C@H](CO)[C@@H](O)C2(F)F)c(=O)n1 [Gemcitabine] | 95.1
Clc1cc(Cl)c(OCC#CI)cc1Cl [Haloprogin] | 103
O=c1[nH]c(=O)n([C@H]2C[C@H](O)[C@@H](CO)O2)cc1I [Idoxuridine] | 96

Same assay, conditions: 10 nM; 72 h

Compound | cell viability [%]
O=C(Cc1cccc(OC(F)(F)F)c1)Nc1ccc(CCCCc2nnc(NC(=O)Cc3ccccn3)s2)nn1 [CB-839] | 84.5
O=C(/C=C/c1cccnc1)NCCCCC1CCN(C(=O)c2ccccc2)CC1 [Daporinad] | 75.4
Nc1ccn([C@@H]2O[C@H](CO)[C@@H](O)C2(F)F)c(=O)n1 [Gemcitabine] | 2.34
Clc1cc(Cl)c(OCC#CI)cc1Cl [Haloprogin] | 95.7
O=c1[nH]c(=O)n([C@H]2C[C@H](O)[C@@H](CO)O2)cc1I [Idoxuridine] | 91.4

Same assay, conditions: 100 nM; 72 h

Compound | cell viability [%]
O=C(Cc1cccc(OC(F)(F)F)c1)Nc1ccc(CCCCc2nnc(NC(=O)Cc3ccccn3)s2)nn1 [CB-839] | 85
O=C(/C=C/c1cccnc1)NCCCCC1CCN(C(=O)c2ccccc2)CC1 [Daporinad] | 16.7
Nc1ccn([C@@H]2O[C@H](CO)[C@@H](O)C2(F)F)c(=O)n1 [Gemcitabine] | 1.01
Clc1cc(Cl)c(OCC#CI)cc1Cl [Haloprogin] | 98.8
O=c1[nH]c(=O)n([C@H]2C[C@H](O)[C@@H](CO)O2)cc1I [Idoxuridine] | 93.5

Same assay, conditions: 1000 nM; 72 h

Compound | cell viability [%]
O=C(Cc1cccc(OC(F)(F)F)c1)Nc1ccc(CCCCc2nnc(NC(=O)Cc3ccccn3)s2)nn1 [CB-839] | 78.3
O=C(/C=C/c1cccnc1)NCCCCC1CCN(C(=O)c2ccccc2)CC1 [Daporinad] | 16.4
Nc1ccn([C@@H]2O[C@H](CO)[C@@H](O)C2(F)F)c(=O)n1 [Gemcitabine] | 0.852
Clc1cc(Cl)c(OCC#CI)cc1Cl [Haloprogin] | 94.1
O=c1[nH]c(=O)n([C@H]2C[C@H](O)[C@@H](CO)O2)cc1I [Idoxuridine] | 76

Same assay, conditions: 10000 nM; 72 h

Compound | cell viability [%]
O=C(Cc1cccc(OC(F)(F)F)c1)Nc1ccc(CCCCc2nnc(NC(=O)Cc3ccccn3)s2)nn1 [CB-839] | 82
O=C(/C=C/c1cccnc1)NCCCCC1CCN(C(=O)c2ccccc2)CC1 [Daporinad] | 0.909
Nc1ccn([C@@H]2O[C@H](CO)[C@@H](O)C2(F)F)c(=O)n1 [Gemcitabine] | 0.24
Clc1cc(Cl)c(OCC#CI)cc1Cl [Haloprogin] | 0.149
O=c1[nH]c(=O)n([C@H]2C[C@H](O)[C@@H](CO)O2)cc1I [Idoxuridine] | 52.1
